Assay results published in patent publication US6358885B1, “Substituted phenylheterocyclic herbicides” (Mississippi State University, priority 1992, dated 2002).

Key:
velvetleaf = experiment: Test B preemergence/postemergence greenhouse plant response rating 0 to 10; format: in vivo, Abutilon theophrasti; details: 0 to 10 scale
How it was run: (§1)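 Test chemicals, dissolved in a non-phytotoxic solvent, were applied to soil at planting and, at the same time, over foliage of seedlings at the one to four leaf stage.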

chickweed = experiment: Test C preemergence/postemergence greenhouse plant response rating 0 to 100; format: in vivo, Stellaria media; details: POSTEMERGENCE; for Plant response rating, Chickweed: 0 to 100 scale
How it was run: (§2)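 Compounds in non-phytotoxic solvent went onto sandy loam before emergence (seeded one day earlier) or onto plants at the one-to-four leaf stage. Duck salad was treated via flood water (~2.5 cm, maintained) over silt loam.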

cheatgrass = experiment: Test B preemergence/postemergence greenhouse plant response rating 0 to 10; format: in vivo, Bromus secalinus; details: 0 to 10 scale
How it was run: as §1

morningglory [1] = experiment: Test C preemergence/postemergence greenhouse plant response rating 0 to 100; format: in vivo, Ipomoea hederacea; details: POSTEMERGENCE; for Plant response rating, Morningglory: 0 to 100 scale
How it was run: as §2

giant foxtail [2] = experiment: Test B preemergence/postemergence greenhouse plant response rating 0 to 10; format: in vivo, Setaria faberii; details: 0 to 10 scale
How it was run: as §1

barley [3] = experiment: Test C preemergence/postemergence greenhouse plant response rating 0 to 100; format: in vivo, Hordeum vulgare; details: POSTEMERGENCE; for Plant response rating Barley Igri: 0 to 100 scale
How it was run: as §2

soybean [4] = experiment: as above; format: in vivo, Glycine max; details: POSTEMERGENCE; for Plant response rating, Soybean: 0 to 100 scale
How it was run: as §2

soybean [5] = experiment: Test B preemergence/postemergence greenhouse plant response rating 0 to 10; format: in vivo, Glycine max; details: 0 to 10 scale
How it was run: as §1

rape = experiment: Test C preemergence/postemergence greenhouse plant response rating 0 to 100; format: in vivo, Brassica napus; details: POSTEMERGENCE; for Plant response rating, Rape: 0 to 100 scale
How it was run: as §2

cocklebur = experiment: Test B preemergence/postemergence greenhouse plant response rating 0 to 10; format: in vivo, Xanthium pensylvanicum; details: 0 to 10 scale
How it was run: as §1

barley [6] = experiment: as above; format: in vivo, Hordeum vulgare; details: 0 to 10 scale
How it was run: as §1

giant foxtail [7] = experiment: Test C preemergence/postemergence greenhouse plant response rating 0 to 100; format: in vivo, Setaria faberii; details: POSTEMERGENCE; for Plant response rating, Giant foxtail: 0 to 100 scale
How it was run: as §2

bedstraw = experiment: Test B preemergence/postemergence greenhouse plant response rating 0 to 10; format: in vivo, Galium aparine; details: 0 to 10 scale
How it was run: as §1

lambsquarters = experiment: as above; format: in vivo, Chenopodium album; details: 0 to 10 scale
How it was run: as §1

sorghum = experiment: Test C preemergence/postemergence greenhouse plant response rating 0 to 100; format: in vivo, Sorghum bicolor; details: POSTEMERGENCE; for Plant response rating, Sorghum: 0 to 100 scale
How it was run: as §2

morningglory [8] = experiment: Test B preemergence/postemergence greenhouse plant response rating 0 to 10; format: in vivo, Ipomoea hederacea; details: 0 to 10 scale
How it was run: as §1

rice = experiment: Test C flood test plant response rating 0 to 100; format: in vivo, Oryza sativa; details: for Plant response rating Rice Japonica: flood test species listed under POSTEMERGENCE, 0 to 100 scale
How it was run: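 Compounds in non-phytotoxic solvent applied preemergence to sandy loam one day after planting, postemergence at the 1–4 leaf stage, or to ~2.5 cm floodwater over silt loam.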

blackgrass = experiment: Test C preemergence/postemergence greenhouse plant response rating 0 to 100; format: in vivo, Alopecurus myosuroides; details: POSTEMERGENCE; for Plant response rating, Blackgrass: 0 to 100 scale
How it was run: as §2

In the case of `CC(C)OC(=O)c1cc(-c2nn3c(c2Cl)CCCC3)c(F)cc1Cl` [Compound 44], the “Plant response rating, Velvetleaf” value (velvetleaf; POSTEMERGENCE, Rate 50 g/ha) is reported as 9, the “Plant response rating, Velvetleaf” value (velvetleaf; PREEMERGENCE, Rate 50 g/ha) is reported as 4 and the “Plant response rating, Velvetleaf” value (velvetleaf; Rate 200 g/ha, POSTEMERGENCE) is reported as 10. The “Plant response rating, Velvetleaf” value (velvetleaf; Rate 200 g/ha, PREEMERGENCE) was 8, the “Plant response rating, Chickweed” value (chickweed; 62 g/ha) was 95 and the “Plant response rating, Chickweed” value (chickweed; 250 g/ha) was 100. For the same compound, the “Plant response rating (0 to 100), Chickweed” value (chickweed; Rate 4 g/ha) was 30, the “Plant response rating (0 to 100), Chickweed” value (chickweed; Rate 16 g/ha) was 80 and the “Plant response rating, Cheatgrass” value (cheatgrass; POSTEMERGENCE, Rate 50 g/ha) was 7. For the same compound, the “Plant response rating, Cheatgrass” value (cheatgrass; POSTEMERGENCE, Rate 200 g/ha) was 10, the “Plant response rating, Cheatgrass” value (cheatgrass; PREEMERGENCE, Rate 50 g/ha) was 2 and the “Plant response rating, Cheatgrass” value (cheatgrass; Rate 200 g/ha, PREEMERGENCE) was 6. For the same compound, the “Plant response rating, Morningglory” value (morningglory [1]; 62 g/ha) was 95, the “Plant response rating, Morningglory” value (morningglory [1]; 250 g/ha) was 100 and the “Plant response rating (0 to 100), Morningglory” value (morningglory [1]; Rate 4 g/ha) was 50. For the same compound, the “Plant response rating (0 to 100), Morningglory” value (morningglory [1]; Rate 16 g/ha) was 70, the “Plant response rating, Giant foxtail” value (giant foxtail [2]; POSTEMERGENCE, Rate 50 g/ha) was 6 and the “Plant response rating, Giant foxtail” value (giant foxtail [2]; PREEMERGENCE, Rate 50 g/ha) was 7. For the same compound, the “Plant response rating, Giant foxtail” value (giant foxtail [2]; Rate 200 g/ha, POSTEMERGENCE) was 9, the “Plant response rating, Giant foxtail” value (giant foxtail [2]; Rate 200 g/ha, PREEMERGENCE) was 8 and the “Plant response rating Barley Igri” value (barley [3]; 62 g/ha) was 40. The “Plant response rating Barley Igri” value (barley [3]; 250 g/ha) was 60, the “Plant response rating (0 to 100), Barley Igri” value (barley [3]; Rate 4 g/ha) was 10 and the “Plant response rating (0 to 100), Barley Igri” value (barley [3]; Rate 16 g/ha) was 30. The “Plant response rating, Soybean” value (soybean [4]; 62 g/ha) was 50, the “Plant response rating, Soybean” value (soybean [4]; 250 g/ha) was 70 and the “Plant response rating (0 to 100), Soybean” value (soybean [4]; Rate 4 g/ha) was 10. The “Plant response rating (0 to 100), Soybean” value (soybean [4]; Rate 16 g/ha) was 30, the “Plant response rating, Soybean” value (soybean [5]; POSTEMERGENCE, Rate 50 g/ha) was 8 and the “Plant response rating, Soybean” value (soybean [5]; PREEMERGENCE, Rate 50 g/ha) was 0. The “Plant response rating, Soybean” value (soybean [5]; Rate 200 g/ha, POSTEMERGENCE) was 8, the “Plant response rating, Soybean” value (soybean [5]; Rate 200 g/ha, PREEMERGENCE) was 3 and the “Plant response rating, Rape” value (rape; 62 g/ha) was 100. For the same compound, the “Plant response rating, Rape” value (rape; 250 g/ha) was 100, the “Plant response rating (0 to 100), Rape” value (rape; Rate 4 g/ha) was 40 and the “Plant response rating (0 to 100), Rape” value (rape; Rate 16 g/ha) was 70. The “Plant response rating, Cocklebur” value (cocklebur; POSTEMERGENCE, Rate 50 g/ha) was 9, the “Plant response rating, Cocklebur” value (cocklebur; POSTEMERGENCE, Rate 200 g/ha) was 10 and the “Plant response rating, Cocklebur” value (cocklebur; PREEMERGENCE, Rate 50 g/ha) was 6. The “Plant response rating, Cocklebur” value (cocklebur; Rate 200 g/ha, PREEMERGENCE) was 9, the “Plant response rating, Barley” value (barley [6]; POSTEMERGENCE, Rate 50 g/ha) was 4 and the “Plant response rating, Barley” value (barley [6]; POSTEMERGENCE, Rate 200 g/ha) was 6. For the same compound, the “Plant response rating, Barley” value (barley [6]; PREEMERGENCE, Rate 50 g/ha) was 1, the “Plant response rating, Barley” value (barley [6]; Rate 200 g/ha, PREEMERGENCE) was 2 and the “Plant response rating, Giant foxtail” value (giant foxtail [7]; 62 g/ha) was 60. For the same compound, the “Plant response rating, Giant foxtail” value (giant foxtail [7]; 250 g/ha) was 100, the “Plant response rating (0 to 100), Giant foxtail” value (giant foxtail [7]; Rate 4 g/ha) was 20 and the “Plant response rating (0 to 100), Giant foxtail” value (giant foxtail [7]; Rate 16 g/ha) was 40. For the same compound, the “Plant response rating, Bedstraw” value (bedstraw; POSTEMERGENCE, Rate 50 g/ha) was 9, the “Plant response rating, Bedstraw” value (bedstraw; POSTEMERGENCE, Rate 200 g/ha) was 9 and the “Plant response rating, Bedstraw” value (bedstraw; PREEMERGENCE, Rate 50 g/ha) was 8. The “Plant response rating, Bedstraw” value (bedstraw; Rate 200 g/ha, PREEMERGENCE) was 10, the “Plant response rating, Lambsquarter” value (lambsquarters; POSTEMERGENCE, Rate 50 g/ha) was 10 and the “Plant response rating, Lambsquarter” value (lambsquarters; PREEMERGENCE, Rate 50 g/ha) was 10. For the same compound, the “Plant response rating, Lambsquarter” value (lambsquarters; Rate 200 g/ha, POSTEMERGENCE) was 10, the “Plant response rating, Lambsquarter” value (lambsquarters; Rate 200 g/ha, PREEMERGENCE) was 10 and the “Plant response rating, Sorghum” value (sorghum; 62 g/ha) was 60. The “Plant response rating, Sorghum” value (sorghum; 250 g/ha) was 100, the “Plant response rating (0 to 100), Sorghum” value (sorghum; Rate 4 g/ha) was 30 and the “Plant response rating (0 to 100), Sorghum” value (sorghum; Rate 16 g/ha) was 40. The “Plant response rating, Morningglory” value (morningglory [8]; POSTEMERGENCE, Rate 50 g/ha) was 9, the “Plant response rating, Morningglory” value (morningglory [8]; PREEMERGENCE, Rate 50 g/ha) was 7 and the “Plant response rating, Morningglory” value (morningglory [8]; Rate 200 g/ha, POSTEMERGENCE) was 10. The “Plant response rating, Morningglory” value (morningglory [8]; Rate 200 g/ha, PREEMERGENCE) was 10, the “Plant response rating (0 to 100), Rice Japonica” value (rice; POSTEMERGENCE section, flood test, Rate 4 g/ha) was 10 and the “Plant response rating (0 to 100), Rice Japonica” value (rice; Rate 16 g/ha, under POSTEMERGENCE head (flood test species)) was 30. The “Plant response rating Rice Japonica” value (rice; 62 g/ha) was 60, the “Plant response rating Rice Japonica” value (rice; 250 g/ha) was 85 and the “Plant response rating, Blackgrass” value (blackgrass; 62 g/ha) was 60. For the same compound, the “Plant response rating, Blackgrass” value (blackgrass; 250 g/ha) was 80, the “Plant response rating (0 to 100), Blackgrass” value (blackgrass; Rate 4 g/ha) was 30 and the “Plant response rating (0 to 100), Blackgrass” value (blackgrass; Rate 16 g/ha) was 40.
